Assay type in all cases: cell-based
Assay [1] concerns full thickness human skin. Briefly: Skin pigmentation in full thickness human skin organ culture. The settings on record: beta arbutin 1% vs vehicle, day 6 of organ culture. The text has this:
FIG. 2(A) depicts human skin treated with beta arbutin 1% vs negative control (“vehicle”) at day 6 of organ culture.
Beta arbutin (hydroquinone glucoside), a recognized inhibitor of tyrosinase, has been selected as positive control for skin lightening.

A further assay relates to pig skin samples. The experiment in a line: Skin pigmentation (melanin, Fontana-Masson staining) in pig skin organ culture. Particulars: Pietrain dorsal pig skin, 1% w/v topical, re-applied daily. How it is done:
For this experiment, full thickness pig skin has been excised from dorsal part of a pig with 30±5 follicles/cm^2 (age: 8 weeks; weight: 24 kg). The skin samples have been cut under sterile condition in smaller pieces (surface: 4×4; thickness: 3 mm) and placed in a 6 wells plate (two samples per well) over a sterilized cotton immerse in 5 ml of culture medium, incubated at 37° C., 5% CO2, 100% humidity, as described above. Culture medium has been renewed every other day.
Thus, 10 μl of beta arbutin (1% w/v in culture medium) per sample has been added topically and re-applied daily. As negative control, culture medium has been applied topically by following the same experimental procedures as for beta-arbutin. Six pig skin samples have been used for each treatment (i.e. beta arbutin and culture medium).
The pig skin samples were incubated for either 2 or 6 days respectively.
Following organ culture procedure, skin samples have been embedded in cryomedium by using liquid nitrogen. […]
The amount of melanin present in each slide has been evaluated by measuring the areas covered by the black spots, by using the software ImageJ (National Institute of Health, US). […]
The data from all samples of the same experimental group have been pooled and the means ±SEM calculated. The statistical significance (P-value) was been determined by Mann-Whitney U test for nonparametric samples. […]

For assay [2], the system named is hair follicle matrix cells in pig skin organ culture. Briefly: Hair follicle matrix cell proliferation (Ki67/DAPI double staining) in pig skin organ culture. The settings on record: 25 ng/ml in culture medium.
Experimental: For this experiment, full thickness skin samples had been excised from dorsal part of a pig with 30±5 follicles/cm^2 (age: 8 weeks; weight: 22 kg).
As a consequence, changes in the proliferation rate of hair follicles matrix cells have been investigated in pig skin organ culture following incubation with recognized modulators of hair growth.
Two different experimental procedures have been investigated:
I. In the first experiment, the pig skin samples had been incubated with the potential modulators from day 0 to day 6.
II. In the second experiment, the skin had been kept in culture until day 14. Then, the skin has been incubated with the potential modulators up day 21.
Following the organ culture procedure, skin samples had been embedded in cryomedium by using liquid nitrogen. Embedded samples had been cut in thin slides (thickness: 7 μm) and were then immunolabelled by performing Ki67/DAPI double staining to detect proliferative cells localized on the bulb region. In particular, while Ki67 labels proliferating cells, DAPI stains all cell nuclei. Quantitative analysis has been performed by using a custom modified version of the software ImageJ (National Institute of Health, US). The data from all samples of the same experimental group have been pooled and the means ±SEM calculated. The statistical significance (P-value) has been determined by Mann-Whitney U test for nonparametric samples. […]

Here are results for two molecules from patent publication US20080138850A1, “Skin Model” (SYMRISE GmbH & Co. KG, priority 2006, published 2008).

For `OC[C@H]1O[C@@H](Oc2ccc(O)cc2)[C@H](O)[C@@H](O)[C@@H]1O` [beta arbutin, hydroquinone glucoside], the “inhibition of skin pigmentation” value in assay [1] is recorded as 31%. Also, the “decrease of pigmentation in comparison to the negative control” value is recorded as 52.4% with pig skin samples (after 2 days) and 44.2% in the assay with pig skin samples (after 6 days).

B1: transforming growth factor beta 2 (protein, UniProt P61812 303-414, looked up)
Transforming growth factor …: ALDAAYCFRNVQDNCCLRPLYIDFKRDLGWKWIHEPKGYNANFCAGACPYLWSSDTQHSRVLSLYNTINPEASASPCCVSQDLEPLTILYYIGKTPKIEQLSNMIVKSCKCS
For the molecule B1, the “inhibition of hair matrix cell proliferation versus untreated control” value in assay [2] (incubated day 0 to day 6, read at day 6) is listed as 24.8%; in assay [2] (incubated day 14 to day 21, read at day 21) it was 36.1%.
